Measurements taken from patent US6610289B2, “Mutated herpes simplex virus type 1 thymidine kinases and uses thereof” (The Board of Trustees of the University of Arkansas, priority 1998, dated 2003).

What was measured:
HCT-116 cells = test: Metabolic labeling with [^3H]GCV, [^3H]thymidine, [^3H]dC, HCT-116 cell clones; format: cell-based, human; conditions: for Phosphorylated metabolite GCVDP / Phosphorylated metabolite GCVMP / Phosphorylated metabolite GCVTP: 116; for Phosphorylated metabolite TMP / Phosphorylated metabolite TTP: 116, [^3H]thymidine labeled
Description: For metabolic labeling, cells (1-2×10^6) were labeled in triplicate with 2 μCi [^3H]GCV ([…]) for 18 hours, then nucleotides were extracted from pelleted cells in 0.2 ml 70% methanol at 4° C. for 15 minutes as previously described (21, 24). An aliquot of each methanol soluble supernatant was analyzed for radioactivity by scintillation counting. The methanol insoluble pellets, representative of a crude DNA fraction, were resuspended in 0.15 ml water and also counted for radioactivity. For deoxpyrimidines, cells were grown to confluency in 60 cm^2 plates, and either 2 μCi [^3H]thymidine (2 μM final) or 2 μCi [^3H]dC (10 μM final) were added for 1 or 2 hours respectively prior to extraction in 70% methanol. Methanol-soluble extracts were concentrated by evaporation under nitrogen, and separated on PEI-cellulose thin layer chromatography plates developed in 0.8 M LiCl for GCV or 0.35 M LiCl for thymidine/dC as previously described (21).
NIH3T3 fibroblasts and the human tumor cell line HCT-116 were transfected with wild-type HSV-1TK or with one of three site specific mutants of amino acid Gln-125. From a panel of multiple HSV-1TK expressing clones, a subset of clones from each cell line expressing wild-type HSV-1 TK, the Asn-125 HSV-1 TK mutant (Asn-125TK) and the Glu-125 HSV-1 TK mutant (Glu-125TK) were selected for comparatively equivalent levels of HSV-1 TK protein expression based on Western blot determinations. In this study, these two sets of HSV-1 TK-expressing NIH 3T3 and HCT-116 cell lines were evaluated for intracellular metabolism of [^3H]GCV, [^3H]thymidine, or [^3H]dC. Cells were labeled with [^3H]GCV for 18 hours, then nucleotides were extracted in ice-cold 70% methanol as previously described (21, 24). The data in Table 3 summarize the amount of total nucleotide metabolites isolated in the methanol-soluble extracts (pmol/10^6 cells) as well as the total amount of methanol-insoluble metabolites representative of incorporation into DNA.
The methanol-soluble metabolites were further separated into their constituent phosphorylated GCV metabolites by thin layer chromatography (21).
Cells were grown to confluency and labeled with either [^3H]thymidine or [^3H]dC for 1 or 2 hours respectively prior to methanol extraction.

HSV-1 TK [1] = test: Substrate screen: phosphorylation of thymidine, TMP, GCV, ACV, dC, AZT by partially purified HSV-1 TKs; format: biochemical, herpes simplex virus type 1; conditions: for Product formation ACVMP: substrate ACV 50 μM; for Product formation AZTMP: substrate AZT 200 μM; for Product formation GCVMP: substrate GCV 50 μM; for Product formation TDP (TMPK activity): substrate TMP 20 μM; for Product formation dCMP: substrate dC 200 μM; for Product formation TMP: substrate thymidine 4 μM
Description: The activity of the purified HSV-1 TK was determined using the following standard reaction mixture for thymidine as a substrate (12): 3 μg of protein, 4 μM [^3H-methyl]thymidine (0.1 mCi/mmol), 20 mM potassium phosphate, pH 7.6, 1 mM DTT, 5 mM ATP, 5 mM MgCl2, 25 mM NaF, 40 mM KCl, and 0.5 mg/ml BSA in a total volume of 25 μl for 10 minutes at 37° C. To identify phosphorylated products, 20 μl of the reaction mixture was loaded onto a DE-81 filter and dried, washed once in 1 mM ammonium formate, twice more in 95% ethanol, and counted for radioactivity (12). Radioactivity was determined using an LKB 1214 Rackbeta liquid scintillation counter and corrected for background using controls with enzyme incubated in the absence of ATP. For TMPK activity, 20 μM [^3H-methyl]TMP was substituted for thymidine in the above assay mixture, and [^3H]TDP product was determined by separation from [^3H]TMP on thin layer PEI-cellulose plates developed in 0.35M LiCl (21). Amount of product converted to TDP was quantitated by scintillation counting of the excised TMP and TDP spots. The filter binding assay was used to quantitate the phosphorylation of [^3H]dC (200) μM and [^3H]AZT (200 μM) with the four enzymes. To compare relative enzymatic activities for [^3H]GCV (50 μM) and [^3H]ACV (50 μM), reactions were loaded onto small DE-52 columns packed in Pasteur pipettes as previously described (22).
As an initial screen for activity, each expressed HSV-1 TK enzyme was assayed for phosphorylation of the following substrates: thymidine (4 μM), TMP (20 μM), ACV (50 μM), GCV (50 μM), deoxycytidine (dC, 200 μM), or 3′-azido-2′,3′dideoxythymidine (AZT, 200 μM). Enzymatic conditions for optimal wild-type HSV-1 TK activities were utilized, thus results presented in Table 1 for each substrate were normalized to 100% values for comparative purposes. As expected, the wild-type Gln-125 HSV-1 TK efficiently phosphorylated each of these substrates. For each mutant, there was a striking decrease in their ability to phosphorylate pyrimidine nucleosides, and minimal TMPK activity for the TMP substrate.

HSV-1 TK [2] = target: T1, HSV-1 TK (Human herpesvirus 1, UniProt P0DTH5); test: Photoaffinity labeling with [^32P]5-azido-dUMP; format: binding, herpes simplex virus type 1; set-up: made in house; host or cells: E. coli BL21SY211 (pET-9a derived pET-TK1); conditions: FIG. 1, autoradiograph
T1 sequence (P0DTH5 1-376): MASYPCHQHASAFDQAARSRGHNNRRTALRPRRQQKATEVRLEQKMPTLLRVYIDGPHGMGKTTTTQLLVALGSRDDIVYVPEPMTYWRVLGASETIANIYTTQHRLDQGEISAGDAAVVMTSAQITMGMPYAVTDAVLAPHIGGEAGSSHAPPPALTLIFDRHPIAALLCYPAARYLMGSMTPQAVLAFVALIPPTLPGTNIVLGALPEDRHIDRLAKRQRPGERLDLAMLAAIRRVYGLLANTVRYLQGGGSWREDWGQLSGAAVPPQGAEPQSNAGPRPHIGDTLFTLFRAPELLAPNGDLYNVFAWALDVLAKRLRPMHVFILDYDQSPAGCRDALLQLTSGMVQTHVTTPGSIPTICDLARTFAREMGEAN
Description: The TMP photoaffinity analog, [^32P]5-N3dUMP, was synthesized enzymatically using HSV-1 TK, 5-azido-deoxyuridine and [g-^32P]ATP as previously described (10, 12). For photolabeling studies, 10 μg of the DE-52/heparin agarose purified HSV-TKs were incubated with 10 mM [^32P]5-N3dUMP for 10 seconds. The sample was then irradiated for 90 seconds with a hand-held UV lamp (254 nm UVP-11, Ultraviolet Products, Inc.) at a distance of 3 cm. Reactions were terminated by addition of an equal volume of 10% TCA, incubated on ice for 10 minutes, and pelleted by centrifugation at 13,000×g for 5 minutes. The protein was resuspended in a solubilization mixture (23) and separated on 10% SDS-polyacrylamide gels. Dried gels were exposed to film for 2 days.
The thymidine and TMP photoaffinity analog, [^32p]5-azido-dUMP, has proven useful as an active-site cross-linking reagent for studying HSV-1 TK (10, 12). This analog was used for photocrosslinking of the four HSV-1 TKs.

Substance | Phosphorylated metabolite GCVDP (HCT-116 cells) [pmol/10^6 cells] | Phosphorylated metabolite GCVMP (HCT-116 cells) [pmol/10^6 cells] | Phosphorylated metabolite GCVTP (HCT-116 cells) [pmol/10^6 cells] | Phosphorylated metabolite TMP (HCT-116 cells) [pmol/10^6 cells] | Phosphorylated metabolite TTP (HCT-116 cells) [pmol/10^6 cells] | Metabolism of GCV and ACV (in words) (HSV-1 TK [1]; GCV 50 μM, ACV 50 μM) | Product formation ACVMP (HSV-1 TK [1]) | Product formation AZTMP (HSV-1 TK [1]) | Product formation GCVMP (HSV-1 TK [1]) | Product formation TDP (TMPK activity) (HSV-1 TK [1]) | Product formation dCMP (HSV-1 TK [1]) | Product formation TMP (HSV-1 TK [1]) | Photoincorporation of [^32P]5-azido-dUMP (HSV-1 TK [2]) | Decrease in GCVTP levels (HCT-116 cells; HCT-116 cells, compared to wild-type and Asn-125TK cells) [fold]
Asn-125 | 104 | 95 | 533 | 0.2 | 0.9 | retained most of these phosphorylation activities | 92 % of wild-type Gln-125 | 9 % of wild-type Gln-125 | 85 % of wild-type Gln-125 | 6 % of wild-type Gln-125 | 0.2 % of wild-type Gln-125 | 22 % of wild-type Gln-125 | – | –
Gln-125 (WT): wild-type herpes simplex virus type 1 thymidine kinase with glutamine at position 125, parent enzyme [reference compound] | 101 | 96 | 415 | 1.2 | 9.5 | – | 100 % of wild-type Gln-125 | 100 % of wild-type Gln-125 | 100 % of wild-type Gln-125 | 100 % of wild-type Gln-125 | 100 % of wild-type Gln-125 | 100 % of wild-type Gln-125 | photoincorporated efficiently | –
Glu-125 | 2.5 | 3.0 | 18 | 0.2 | 0.4 | – | 7 % of wild-type Gln-125 | 48 % of wild-type Gln-125 | 5 % of wild-type Gln-125 | 7 % of wild-type Gln-125 | 0.2 % of wild-type Gln-125 | 43 % of wild-type Gln-125 | – | ≥ 23
